{"source": "patent US20240115221A1", "about": "“POSITRON IMAGING TOMOGRAPHY IMAGING AGENT C[…] METHOD FOR BACTERIAL INFECTION” (The Research Foundation for the State University of New York, priority 2016, published 2024)", "key": {"M. tuberculosis": {"test_system": "M. tuberculosis", "assay": "MIC determination (antibacterial activity)", "type": "cell-based", "settings": "Mycobacterium tuberculosis", "protocol": "(§1) Expressed and purified dihydropteroate synthase (DHPS) from S. aureus (saDHPS) was cloned. DHPS is the enzyme that installs PABA (p-aminobenzoic acid) in the folate biosynthesis pathway (Scheme 2). […] Using a coupled assay, it was determined that the kinetic parameters for saDHPS with PABA, PAS and F-PABA. […] Since PAS is an antibacterial compound whose mechanism of action may be related for the ability of this compound to compete with PABA for DHPS, we determined the antibacterial activity and cytotoxicity of F-PABA for several bacterial species as well as Vero cells. In each case no growth inhibition was observed up to 200 μg/ml."}, "E. coli [1]": {"test_system": "E. coli", "assay": "MIC determination (antibacterial activity)", "type": "cell-based", "settings": "Escherichia coli", "protocol": "as §1"}, "S. aureus [2]": {"test_system": "S. aureus", "assay": "MIC determination (antibacterial activity)", "type": "cell-based", "settings": "Staphylococcus aureus", "protocol": "as §1"}, "[3]": {"molecular_target": "T1, dihydropteroate synthase (DHPS) from S. aureus (saDHPS) (Staphylococcus aureus, UniProt O05701)", "T1 construct": "made in house", "T1 sequence (O05701 whole entry)": "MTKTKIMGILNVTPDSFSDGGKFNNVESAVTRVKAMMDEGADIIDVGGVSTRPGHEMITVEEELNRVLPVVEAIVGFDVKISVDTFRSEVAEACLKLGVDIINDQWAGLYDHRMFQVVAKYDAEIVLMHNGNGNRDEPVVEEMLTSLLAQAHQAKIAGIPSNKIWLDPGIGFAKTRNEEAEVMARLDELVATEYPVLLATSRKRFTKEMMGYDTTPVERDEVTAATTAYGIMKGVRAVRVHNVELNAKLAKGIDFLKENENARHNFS", "assay": "Coupled assay, kinetic parameters for saDHPS", "type": "biochemical", "protocol": "as §1"}, "Vero cells": {"test_system": "Vero cells", "assay": "Cytotoxicity for Vero cells", "type": "cell-based", "protocol": "as §1"}, "[4]": {"test_system": "several bacterial species", "assay": "Antibacterial activity for several bacterial species", "type": "cell-based"}, "E. coli [5]": {"test_system": "E. coli", "assay": "Uptake of [18F]F-PABA by bacteria", "type": "cell-based", "text": "(§2) The ability of different bacterial species to take up [^18F] F-PABA was studied. The radiotracer accumulated in both methicillin sensitive S. aureus (MSSA, Newman) and methicillin-resistant S. aureus (MRSA), as well as the Gram negative bacteria E. coli and Klebsiela pneumoniae."}, "[6]": {"test_system": "methicillin-resistant S. aureus (MRSA)", "assay": "Uptake of [18F]F-PABA by bacteria", "type": "cell-based", "text": "as §2"}, "Klebsiela pneumoniae": {"test_system": "Klebsiela pneumoniae", "assay": "Uptake of [18F]F-PABA by bacteria", "type": "cell-based", "text": "as §2"}, "Newman S. aureus [7]": {"test_system": "Newman S. aureus", "assay": "Rat triceps S. aureus infection model, PET imaging and ex vivo counting", "type": "in vivo", "protocol": "Initial in vivo studies focused on soft tissue models of MSSA infection. This included a mouse thigh infection model and rat triceps model. […] Fifty μL of 10^9 CFU of Newman S. aureus BHI culture was injected into the right triceps of a rat. After 10-15 hr the rats were imaged following iv administration of 0.8-1.2 mCi of [^18F]F-PABA. The images clearly show the accumulation of radioactivity in the right but not the left triceps. In addition to monitoring the time course of [^18F]F-PABA biodistribution, we also quantified tracer levels by postmortem ex vivo counting. […] At 60 min tracer levels were 5.4× higher in the infected right triceps compared to the uninfected left triceps. This compares favorably with other tracers."}, "Enterococcus faecalis": {"test_system": "Enterococcus faecalis", "assay": "Uptake of [18F]F-PABA by bacteria", "type": "cell-based", "text": "(§3) In contrast, [^18F]F-PABA was not taken up by Enterococcus faecalis. E. faecalis has a folate salvage pathway and can take up folate from the environment. Thus, folic acid biosynthesis is dispensable in this organism, which also explains why sulfonamides are not used to treat infection by E. faecalis."}, "Newman S. aureus [8]": {"test_system": "Newman S. aureus", "assay": "Rat triceps infection versus sterile inflammation (heat-killed S. aureus)", "type": "in vivo", "settings": "right triceps infected, left triceps heat-killed S. aureus", "protocol": "One of the main limitations of using FDG to image infection is that FDG accumulates in the mammalian cells involved in the inflammatory response to infection. It was analyzed how inflammation affected the biodistribution of [^18F]F-PABA by generating an inflammatory response using 50 μL of […] of Newman S. aureus heat-killed bacteria.\naccumulation of [^18F]F-PABA at the site of infection is likely not due to uptake by cells involved in the inflammatory response."}, "S. aureus [9]": {"test_system": "S. aureus", "assay": "Rat triceps infection, tracer accumulation and bacterial load under vancomycin treatment", "text": "A key goal is to identify a tracer that can be used to quantify bacterial load and monitor the change in bacterial load during and following antibiotic treatment."}, "[10]": {"test_system": "methicillin sensitive S. aureus (MSSA, Newman)", "assay": "Uptake of [18F]F-PABA by bacteria", "type": "cell-based", "text": "as §2, §3"}, "[11]": {"settings": "after a further 3 doses of vancomycin"}}}
{"smiles": "Nc1ccc(C(=O)O)c(F)c1", "note": "[2-F-PABA, 2-fluoro-4-aminobenzoic acid]", "values": [{"measurement": "MIC", "setting": "M. tuberculosis", "result": "> 100", "unit": "mg/L"}, {"measurement": "MIC", "setting": "E. coli [1]", "result": "> 200", "unit": "mg/L"}, {"measurement": "MIC", "setting": "S. aureus [2]", "result": "> 200", "unit": "mg/L"}, {"measurement": "substrate for saDHPS", "setting": "[3]", "result": "alternative substrate for saDHPS"}, {"measurement": "concentration up to which no growth inhibition was observed (cytotoxicity)", "setting": "Vero cells", "result": "> 200", "unit": "µg/mL"}, {"measurement": "MIC", "setting": "[4]; discussion, species not named", "result": "> 100", "unit": "mg/L"}, {"measurement": "concentration up to which no growth inhibition was observed", "setting": "[4]; several bacterial species", "result": "> 200", "unit": "µg/mL"}, {"measurement": "antibacterial activity", "setting": "[4]; summary of Table 1", "result": "no antibacterial activity"}]}
{"smiles": "Nc1ccc(C(=O)O)c([18F])c1", "note": "[[^18F]F-PABA, 4-Amino-2-[^18f]-fluorobenzoic acid]", "values": [{"measurement": "uptake of radiotracer", "setting": "E. coli [5]", "result": "accumulated"}, {"measurement": "uptake of radiotracer", "setting": "[6]", "result": "accumulated"}, {"measurement": "uptake of radiotracer", "setting": "Klebsiela pneumoniae", "result": "accumulated"}, {"measurement": "tracer levels in infected right triceps compared to uninfected left triceps", "setting": "Newman S. aureus [7]; iv 0.8-1.2 mCi, at 60 min", "result": 5.4, "unit": "×"}, {"measurement": "biodistribution of tracer", "setting": "Newman S. aureus [7]; iv, postmortem ex vivo counting", "result": "distributed to all tissues and organs with the exception of the brain"}, {"measurement": "uptake of radiotracer", "setting": "Enterococcus faecalis", "result": "not taken up"}, {"measurement": "radiotracer levels at site of infection compared to site of sterile inflammation", "setting": "Newman S. aureus [8]", "result": 10, "unit": "fold"}, {"measurement": "tracer accumulation in infected triceps", "setting": "S. aureus [9]; after 3 doses of vancomycin", "result": "0.015±0.005", "unit": "%1D/cc"}, {"measurement": "decrease in tracer levels", "setting": "S. aureus [9]; after 3 doses of vancomycin versus before treatment", "result": "~3", "unit": "fold"}, {"measurement": "tracer accumulation in infected triceps", "setting": "S. aureus [9]; [11]", "result": "0.013±0.002", "unit": "% 10/cc"}, {"measurement": "tracer accumulation in infected triceps", "setting": "S. aureus [9]; before treatment", "result": "0.051±0.008", "unit": "%1D/cc"}, {"measurement": "tracer levels in the uninfected triceps", "setting": "S. aureus [9]; uninfected triceps", "result": "0.007±0.001", "unit": "%1D/cc"}, {"measurement": "uptake of radiotracer", "setting": "[10]; heat-killed MSSA cells", "result": "unable to take up"}, {"measurement": "uptake of radiotracer", "setting": "[10]; viable MSSA (Newman)", "result": "accumulated"}]}
{"smiles": "CN[C@H](CC(C)C)C(=O)N[C@H]1C(=O)N[C@@H](CC(N)=O)C(=O)N[C@H]2C(=O)N[C@H]3C(=O)N[C@H](C(=O)N[C@H](C(=O)O)c4cc(O)cc(O)c4-c4cc3ccc4O)[C@H](O)c3ccc(c(Cl)c3)Oc3cc2cc(c3O[C@@H]2O[C@H](CO)[C@@H](O)[C@H](O)[C@H]2O[C@H]2C[C@](C)(N)[C@H](O)[C@H](C)O2)Oc2ccc(cc2Cl)[C@H]1O", "note": "[vancomycin, reference compound]", "values": [{"measurement": "bacterial burden of infected triceps", "setting": "S. aureus [9]; after 3 doses of vancomycin", "result": "8.1±0.3", "unit": "Log10 CFU"}, {"measurement": "decrease in bacterial burden", "setting": "S. aureus [9]; after 3 doses of vancomycin", "result": "~3", "unit": "logs"}, {"measurement": "bacterial burden of infected triceps", "setting": "S. aureus [9]; [11]", "result": "7.0±0.9", "unit": "Log10 CFU"}, {"measurement": "additional decrease in bacterial burden", "setting": "S. aureus [9]; further 3 doses of vancomycin", "result": 1, "unit": "log"}]}
